The source of these data is patent publication US7875618B2, “Substituted imidazo[1,5-a]quinoxalines useful as inhibitors of phosphodiesterase 10 for the treatment of neurological and other disorders” (Wyeth, priority 2007, dated 2011).

For orientation: Km means the concentration of substrate that gives half-maximal velocity.

One assay deals with PDE10 from pig striatum (Sus scrofa, UniProt A0A287B941). Put plainly: Inhibition of PDE10 from pig striatum ([3H]-cAMP SPA, Methods A and B). The class given is biochemical. To be noted: Method A, PDE10 from pig striatum; read-out: Km of substrate.
In another assay the target is T1, PDE10 from rat striatum (Rattus norvegicus, UniProt Q9QYJ6).
T1 construct: from tissue; host or cells: rat striatum (male Wistar)
T1 sequence (Q9QYJ6 1-794): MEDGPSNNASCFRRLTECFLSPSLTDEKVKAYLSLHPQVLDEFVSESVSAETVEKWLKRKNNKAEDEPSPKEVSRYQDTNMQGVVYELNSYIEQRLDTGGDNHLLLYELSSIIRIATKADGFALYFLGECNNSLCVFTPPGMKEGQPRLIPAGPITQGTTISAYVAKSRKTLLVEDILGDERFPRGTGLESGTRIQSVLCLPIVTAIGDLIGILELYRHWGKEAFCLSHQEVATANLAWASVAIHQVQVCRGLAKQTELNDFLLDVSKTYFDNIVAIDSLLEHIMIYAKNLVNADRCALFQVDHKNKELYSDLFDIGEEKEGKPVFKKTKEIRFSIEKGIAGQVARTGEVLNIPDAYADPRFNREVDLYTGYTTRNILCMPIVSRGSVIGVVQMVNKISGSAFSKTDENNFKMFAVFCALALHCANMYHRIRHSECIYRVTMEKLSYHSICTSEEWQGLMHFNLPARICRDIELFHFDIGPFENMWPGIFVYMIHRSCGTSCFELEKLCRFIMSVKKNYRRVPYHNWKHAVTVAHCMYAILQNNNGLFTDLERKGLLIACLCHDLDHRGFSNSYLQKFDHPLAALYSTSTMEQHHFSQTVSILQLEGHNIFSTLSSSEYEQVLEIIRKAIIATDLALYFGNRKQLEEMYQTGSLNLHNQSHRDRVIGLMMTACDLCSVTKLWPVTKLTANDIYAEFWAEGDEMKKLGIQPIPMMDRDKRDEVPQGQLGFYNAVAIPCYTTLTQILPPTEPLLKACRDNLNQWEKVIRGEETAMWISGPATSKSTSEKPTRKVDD
The assay can be described thus: Inhibition of PDE10 from rat striatum (Method A). The class given is biochemical. The settings on record: read-out: Km of substrate. The protocol:
Striatum from male Wistar rats (180-200 g), male hybrid pigs (150 kg) and male guinea pigs (CRL (HA), 500 g) respectively were collected and frozen at −70° C. At the day of preparation 0.5 g striatum was homogenised in 10 ml 50 mM Tris/Mg-buffer at 4° C. and centrifuged for one hour at 100000 g. The supernatant is called the cytosolic fraction and was removed and stored on ice. The pellet was resuspended in the same buffer, but containing 1% Triton and incubated for 45 min at 4° C. Both fractions were independently applied onto a 5 ml Hi Trap™ QHP column at the Äkta-FPLC. After washing the columns the bound PDE protein was eluted with an increasing sodium chloride gradient (0 mM-500 mM sodium chloride) in 50 mM Tris/Mg-buffer at 4° C. for the cytosolic fraction and in the presence of 1% Triton for the membrane fraction. […] The fractions with PDE10-activity were pooled and frozen in aliquots until use at −20° C. PDE10 activity was determined in a one step procedure in microtiter plates. […] Nonspecific activity was tested without the enzyme. The reaction was initiated by addition of the substrate solution and was carried out at 37° C. for 30 minutes. Enzymatic activity was stopped by addition of 25 μl YSi-SPA-beads (Amersham-Pharmacia). One hour later the mixture was measured in a liquid scintillation counter for microtiter plates (Microbeta Trilux). […]

Assay [1] addresses Phosphodiesterase (PDE) 10A (Homo sapiens, UniProt Q9Y233). To be noted: Soderling et al. 1999; read-out: Km of substrate; cited from earlier work.

Chain of Phosphodiesterase (PDE) 10A (Q9Y233 whole entry): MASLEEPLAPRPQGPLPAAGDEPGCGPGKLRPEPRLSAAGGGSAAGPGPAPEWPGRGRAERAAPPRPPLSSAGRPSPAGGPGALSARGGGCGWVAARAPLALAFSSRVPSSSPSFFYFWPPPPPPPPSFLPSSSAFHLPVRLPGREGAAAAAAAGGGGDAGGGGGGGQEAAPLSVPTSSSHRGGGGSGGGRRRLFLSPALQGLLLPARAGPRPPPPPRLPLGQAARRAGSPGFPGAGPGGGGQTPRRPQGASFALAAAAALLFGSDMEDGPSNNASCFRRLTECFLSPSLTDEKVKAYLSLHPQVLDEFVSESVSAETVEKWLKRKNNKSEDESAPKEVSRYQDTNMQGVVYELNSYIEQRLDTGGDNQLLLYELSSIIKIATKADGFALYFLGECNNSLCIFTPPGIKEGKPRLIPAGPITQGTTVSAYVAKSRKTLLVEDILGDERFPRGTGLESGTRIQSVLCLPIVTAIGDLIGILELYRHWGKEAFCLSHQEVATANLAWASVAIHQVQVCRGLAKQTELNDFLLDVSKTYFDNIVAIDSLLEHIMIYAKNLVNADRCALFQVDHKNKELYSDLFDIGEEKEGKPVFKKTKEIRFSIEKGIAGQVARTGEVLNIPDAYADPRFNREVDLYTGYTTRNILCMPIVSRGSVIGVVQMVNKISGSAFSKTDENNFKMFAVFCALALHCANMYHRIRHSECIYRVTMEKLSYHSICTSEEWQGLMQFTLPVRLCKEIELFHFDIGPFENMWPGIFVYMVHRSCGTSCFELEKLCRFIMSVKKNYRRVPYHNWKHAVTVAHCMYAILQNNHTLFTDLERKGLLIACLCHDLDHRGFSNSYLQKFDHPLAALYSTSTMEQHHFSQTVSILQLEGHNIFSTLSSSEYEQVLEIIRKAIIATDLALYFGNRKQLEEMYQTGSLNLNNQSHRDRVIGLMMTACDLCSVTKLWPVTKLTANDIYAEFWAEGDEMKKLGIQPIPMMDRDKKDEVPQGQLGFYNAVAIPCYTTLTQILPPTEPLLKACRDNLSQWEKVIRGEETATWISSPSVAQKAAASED

As for `Nc1nc2c(ncn2[C@@H]2O[C@@H]3COP(=O)(O)O[C@H]3[C@H]2O)c(=O)[nH]1` [cGMP], the Km is 2.2 µM on PDE10 from pig striatum, 1.8 µM on PDE10 from rat striatum and 3 µM in assay [1].
